In PMC12183592, “Discovery of Iboga-Derived Ligands for the Sigma‑2 Receptor” (ACS Bio & Med Chem Au, 2025):

Experiments:
SERT = SERT (Homo sapiens, UniProt P31645); experiment: PDSP secondary radioligand displacement assay, Ki; type: binding; settings: supplement xlsx
Description: (§1) Thirteen analogs, in addition to ibogamine itself (Figure ), were submitted to the PDSP for biological evaluation. Primary radioligand displacement assays were run on 44 neurotransmitter receptors and transporters to give a snapshot of the receptor affinity for each ligand.

Alpha1B = Alpha1B (Homo sapiens, UniProt P35368); experiment: PDSP secondary radioligand displacement assay, Ki; type: binding
Description: as §1

Alpha2A = target: T1, Alpha2A (Homo sapiens, UniProt P08913); experiment: PDSP secondary radioligand displacement assay, Ki; type: binding
T1 sequence (P08913 1-465): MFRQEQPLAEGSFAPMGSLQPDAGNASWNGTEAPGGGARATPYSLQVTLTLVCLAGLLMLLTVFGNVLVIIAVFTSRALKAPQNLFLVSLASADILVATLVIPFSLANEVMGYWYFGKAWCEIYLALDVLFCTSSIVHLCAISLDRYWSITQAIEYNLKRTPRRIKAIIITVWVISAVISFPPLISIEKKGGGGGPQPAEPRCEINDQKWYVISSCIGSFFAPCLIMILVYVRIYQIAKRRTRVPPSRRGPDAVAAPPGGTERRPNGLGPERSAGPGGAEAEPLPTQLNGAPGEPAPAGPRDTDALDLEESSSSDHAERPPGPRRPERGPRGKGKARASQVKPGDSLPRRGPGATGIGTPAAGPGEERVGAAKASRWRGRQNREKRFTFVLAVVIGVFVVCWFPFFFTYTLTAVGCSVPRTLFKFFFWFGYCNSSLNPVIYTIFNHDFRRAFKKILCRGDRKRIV
Description: as §1

Alpha2C = target: T2, Alpha2C (Homo sapiens, UniProt P18825); experiment: PDSP secondary radioligand displacement assay, Ki; type: binding; settings: Ki values (nM) Alpha2C, supplement xlsx and text
T2 sequence (P18825 1-462): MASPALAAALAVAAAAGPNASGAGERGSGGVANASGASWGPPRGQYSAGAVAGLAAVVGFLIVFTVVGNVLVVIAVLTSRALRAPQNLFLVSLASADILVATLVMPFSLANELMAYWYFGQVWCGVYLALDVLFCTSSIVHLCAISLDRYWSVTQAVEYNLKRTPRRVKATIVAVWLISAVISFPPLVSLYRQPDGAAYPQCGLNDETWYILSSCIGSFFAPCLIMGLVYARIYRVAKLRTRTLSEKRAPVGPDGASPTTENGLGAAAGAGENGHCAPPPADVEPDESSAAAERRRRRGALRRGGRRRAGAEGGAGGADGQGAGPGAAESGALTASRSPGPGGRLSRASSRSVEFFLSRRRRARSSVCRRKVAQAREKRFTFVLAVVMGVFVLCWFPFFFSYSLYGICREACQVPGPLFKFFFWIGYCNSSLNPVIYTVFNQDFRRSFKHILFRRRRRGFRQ
Description: as §1

DAT = DAT (Homo sapiens, UniProt Q01959); experiment: PDSP secondary radioligand displacement assay, Ki; type: binding
DAT, sequence (Q01959 whole entry, species assumed): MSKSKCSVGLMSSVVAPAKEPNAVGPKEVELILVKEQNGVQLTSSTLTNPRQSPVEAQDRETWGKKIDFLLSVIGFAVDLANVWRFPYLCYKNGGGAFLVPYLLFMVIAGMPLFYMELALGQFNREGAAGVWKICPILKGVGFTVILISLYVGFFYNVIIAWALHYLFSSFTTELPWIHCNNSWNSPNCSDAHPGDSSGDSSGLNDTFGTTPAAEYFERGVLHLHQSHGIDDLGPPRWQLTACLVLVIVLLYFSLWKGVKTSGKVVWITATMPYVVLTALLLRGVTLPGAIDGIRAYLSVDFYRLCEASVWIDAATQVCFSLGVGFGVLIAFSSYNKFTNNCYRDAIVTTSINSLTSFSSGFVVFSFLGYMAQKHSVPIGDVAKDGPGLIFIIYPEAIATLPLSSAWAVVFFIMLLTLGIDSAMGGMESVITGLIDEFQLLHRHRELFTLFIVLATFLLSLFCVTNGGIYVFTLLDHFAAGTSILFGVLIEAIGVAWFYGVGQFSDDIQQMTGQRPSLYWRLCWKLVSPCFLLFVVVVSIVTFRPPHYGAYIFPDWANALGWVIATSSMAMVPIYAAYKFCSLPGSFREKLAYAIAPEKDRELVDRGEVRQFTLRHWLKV
Description: as §1

KOR = KOR (Homo sapiens, UniProt P41145); experiment: PDSP secondary radioligand displacement assay, Ki; type: binding; settings: supplement xlsx
KOR, sequence (P41145 whole entry): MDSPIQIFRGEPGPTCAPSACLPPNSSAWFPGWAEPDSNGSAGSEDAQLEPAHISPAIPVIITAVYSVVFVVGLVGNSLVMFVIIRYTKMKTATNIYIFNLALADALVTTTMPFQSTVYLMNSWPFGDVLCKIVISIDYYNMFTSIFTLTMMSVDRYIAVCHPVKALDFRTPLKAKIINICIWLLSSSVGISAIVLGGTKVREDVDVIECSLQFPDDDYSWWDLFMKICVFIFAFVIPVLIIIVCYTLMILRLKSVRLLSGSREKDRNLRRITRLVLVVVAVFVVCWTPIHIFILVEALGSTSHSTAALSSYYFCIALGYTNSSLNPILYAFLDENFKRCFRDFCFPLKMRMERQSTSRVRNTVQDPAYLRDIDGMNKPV
Description: as §1

M2 = target: T3, M2 (Homo sapiens, UniProt P08172); experiment: PDSP secondary radioligand displacement assay, Ki; type: binding
T3 sequence (P08172 1-466): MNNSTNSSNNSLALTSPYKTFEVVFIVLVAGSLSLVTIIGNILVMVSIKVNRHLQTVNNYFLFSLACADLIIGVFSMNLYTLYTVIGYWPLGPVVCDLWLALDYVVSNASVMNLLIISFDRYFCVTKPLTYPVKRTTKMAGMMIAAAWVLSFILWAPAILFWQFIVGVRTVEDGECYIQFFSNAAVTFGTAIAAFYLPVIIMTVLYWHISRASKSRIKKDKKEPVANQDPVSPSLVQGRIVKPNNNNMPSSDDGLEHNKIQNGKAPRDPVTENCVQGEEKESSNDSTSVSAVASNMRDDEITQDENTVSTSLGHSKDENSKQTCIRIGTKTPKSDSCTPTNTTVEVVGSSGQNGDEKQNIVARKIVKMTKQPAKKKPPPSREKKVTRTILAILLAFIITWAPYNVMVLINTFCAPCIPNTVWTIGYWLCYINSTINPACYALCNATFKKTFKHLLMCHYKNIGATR
Description: as §1

M3 = M3 (Homo sapiens, UniProt P20309); experiment: PDSP secondary radioligand displacement assay, Ki; type: binding
M3, sequence (P20309 whole entry): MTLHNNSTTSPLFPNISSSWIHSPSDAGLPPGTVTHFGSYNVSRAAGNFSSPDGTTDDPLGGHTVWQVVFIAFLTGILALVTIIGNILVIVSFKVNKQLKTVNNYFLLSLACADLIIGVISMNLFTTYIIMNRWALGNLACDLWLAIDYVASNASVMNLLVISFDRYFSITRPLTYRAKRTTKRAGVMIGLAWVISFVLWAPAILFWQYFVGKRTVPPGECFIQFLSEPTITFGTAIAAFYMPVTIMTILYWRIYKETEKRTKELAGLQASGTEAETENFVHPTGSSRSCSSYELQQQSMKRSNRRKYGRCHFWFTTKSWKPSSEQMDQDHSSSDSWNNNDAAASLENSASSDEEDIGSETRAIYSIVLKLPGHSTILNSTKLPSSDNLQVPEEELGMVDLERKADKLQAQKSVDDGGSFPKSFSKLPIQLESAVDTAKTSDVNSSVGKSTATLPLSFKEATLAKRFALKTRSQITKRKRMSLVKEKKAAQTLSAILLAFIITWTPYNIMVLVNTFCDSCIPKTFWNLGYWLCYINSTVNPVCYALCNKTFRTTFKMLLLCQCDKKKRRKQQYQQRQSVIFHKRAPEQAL
Description: as §1

NET = NET (Homo sapiens, UniProt P23975); experiment: PDSP secondary radioligand displacement assay, Ki; type: binding
NET, sequence (P23975 whole entry): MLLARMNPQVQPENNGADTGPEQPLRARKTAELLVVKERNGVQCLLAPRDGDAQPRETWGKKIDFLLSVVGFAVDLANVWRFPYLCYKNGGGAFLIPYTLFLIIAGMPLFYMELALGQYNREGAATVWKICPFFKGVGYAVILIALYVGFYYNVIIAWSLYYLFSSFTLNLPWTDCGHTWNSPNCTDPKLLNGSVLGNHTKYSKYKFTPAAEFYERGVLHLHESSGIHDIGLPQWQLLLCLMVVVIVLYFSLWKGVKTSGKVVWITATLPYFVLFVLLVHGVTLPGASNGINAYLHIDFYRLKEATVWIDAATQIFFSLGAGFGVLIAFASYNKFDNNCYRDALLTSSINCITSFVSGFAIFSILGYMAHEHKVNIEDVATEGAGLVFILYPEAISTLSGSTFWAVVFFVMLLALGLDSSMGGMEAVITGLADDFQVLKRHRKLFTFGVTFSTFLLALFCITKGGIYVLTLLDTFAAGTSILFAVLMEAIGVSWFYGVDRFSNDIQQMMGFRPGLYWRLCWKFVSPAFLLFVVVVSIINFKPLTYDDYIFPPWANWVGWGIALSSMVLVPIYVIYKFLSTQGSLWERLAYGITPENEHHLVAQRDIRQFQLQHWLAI
Description: as §1

5-HT2A = 5-HT2A (Homo sapiens, UniProt P28223); experiment: PDSP secondary radioligand displacement assay, Ki; type: binding; settings: supplement xlsx
Description: as §1

5-HT3 = 5-HT3 (Homo sapiens, UniProt P46098); experiment: PDSP secondary radioligand displacement assay, Ki; type: binding; settings: supplement xlsx
Description: as §1

Alpha2B = target: T4, Alpha2B (Homo sapiens, UniProt P18089); experiment: PDSP secondary radioligand displacement assay, Ki; type: binding; settings: supplement xlsx
T4 sequence (P18089 1-450): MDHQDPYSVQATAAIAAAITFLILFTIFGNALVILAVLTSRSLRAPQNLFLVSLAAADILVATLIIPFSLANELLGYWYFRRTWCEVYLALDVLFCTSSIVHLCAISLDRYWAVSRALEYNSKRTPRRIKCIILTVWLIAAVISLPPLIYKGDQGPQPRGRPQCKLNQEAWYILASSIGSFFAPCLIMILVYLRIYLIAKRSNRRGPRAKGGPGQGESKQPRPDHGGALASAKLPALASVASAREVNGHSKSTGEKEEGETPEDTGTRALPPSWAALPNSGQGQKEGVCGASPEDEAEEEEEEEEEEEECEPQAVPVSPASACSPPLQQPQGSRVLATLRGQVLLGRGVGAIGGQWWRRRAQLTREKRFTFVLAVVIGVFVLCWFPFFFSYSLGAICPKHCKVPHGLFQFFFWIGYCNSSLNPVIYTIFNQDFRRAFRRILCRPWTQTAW
Description: as §1

H3 = H3 (Homo sapiens, UniProt Q9Y5N1); experiment: PDSP secondary radioligand displacement assay, Ki; type: binding
H3, sequence (Q9Y5N1 whole entry): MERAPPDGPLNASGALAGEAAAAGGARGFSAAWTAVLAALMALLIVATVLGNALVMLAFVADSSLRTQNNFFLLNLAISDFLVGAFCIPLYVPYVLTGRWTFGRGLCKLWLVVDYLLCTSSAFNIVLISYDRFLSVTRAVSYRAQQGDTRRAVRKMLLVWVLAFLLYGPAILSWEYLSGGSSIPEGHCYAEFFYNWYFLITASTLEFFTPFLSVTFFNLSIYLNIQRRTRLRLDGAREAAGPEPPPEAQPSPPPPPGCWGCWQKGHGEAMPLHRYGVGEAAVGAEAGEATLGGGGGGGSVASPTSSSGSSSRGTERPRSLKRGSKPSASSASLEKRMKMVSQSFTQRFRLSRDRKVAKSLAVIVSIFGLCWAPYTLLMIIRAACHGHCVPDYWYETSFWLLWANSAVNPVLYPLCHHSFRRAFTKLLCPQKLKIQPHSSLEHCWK
Description: as §1

MOR = MOR (Homo sapiens, UniProt P35372); experiment: PDSP secondary radioligand displacement assay, Ki; type: binding; settings: supplement xlsx
MOR, sequence (P35372 whole entry): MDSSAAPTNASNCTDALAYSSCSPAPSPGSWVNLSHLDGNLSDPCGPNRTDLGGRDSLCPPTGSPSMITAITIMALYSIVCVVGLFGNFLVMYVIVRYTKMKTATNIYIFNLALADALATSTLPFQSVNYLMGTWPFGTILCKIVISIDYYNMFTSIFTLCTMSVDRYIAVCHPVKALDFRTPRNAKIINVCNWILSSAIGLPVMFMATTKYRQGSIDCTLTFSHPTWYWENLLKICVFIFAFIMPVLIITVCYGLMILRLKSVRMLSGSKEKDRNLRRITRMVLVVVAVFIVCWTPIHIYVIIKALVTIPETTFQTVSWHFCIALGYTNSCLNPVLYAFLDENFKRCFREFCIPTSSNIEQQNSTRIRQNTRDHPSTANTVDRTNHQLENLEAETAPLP

5-HT1D = 5-HT1D (Homo sapiens, UniProt P28221); experiment: PDSP secondary radioligand displacement assay, Ki; type: binding; settings: supplement xlsx
5-HT1D, sequence (P28221 whole entry, species assumed): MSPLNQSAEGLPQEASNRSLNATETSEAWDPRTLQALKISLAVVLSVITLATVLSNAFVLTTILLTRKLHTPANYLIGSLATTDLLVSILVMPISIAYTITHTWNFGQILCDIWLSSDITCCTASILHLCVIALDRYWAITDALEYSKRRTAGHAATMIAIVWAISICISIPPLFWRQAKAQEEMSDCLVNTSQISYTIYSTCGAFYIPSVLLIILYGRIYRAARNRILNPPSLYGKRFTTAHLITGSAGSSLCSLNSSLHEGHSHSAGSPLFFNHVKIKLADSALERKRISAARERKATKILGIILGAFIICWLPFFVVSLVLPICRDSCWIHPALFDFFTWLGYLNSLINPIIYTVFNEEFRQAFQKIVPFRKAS
Description: as §1

H4 = H4 (Homo sapiens, UniProt Q9H3N8); experiment: PDSP secondary radioligand displacement assay, Ki; type: binding; settings: supplement xlsx
H4, sequence (Q9H3N8 whole entry): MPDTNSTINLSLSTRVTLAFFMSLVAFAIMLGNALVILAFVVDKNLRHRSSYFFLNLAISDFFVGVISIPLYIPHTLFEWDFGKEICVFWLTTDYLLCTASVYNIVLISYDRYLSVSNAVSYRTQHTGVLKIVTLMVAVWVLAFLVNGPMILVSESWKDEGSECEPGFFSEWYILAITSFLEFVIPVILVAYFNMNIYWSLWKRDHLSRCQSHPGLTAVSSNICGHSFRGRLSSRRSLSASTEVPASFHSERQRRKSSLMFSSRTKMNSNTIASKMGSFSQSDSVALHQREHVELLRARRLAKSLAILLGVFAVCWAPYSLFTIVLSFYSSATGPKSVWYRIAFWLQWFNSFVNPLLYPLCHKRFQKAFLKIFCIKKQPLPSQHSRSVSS
Description: as §1

M1 = M1 (Homo sapiens, UniProt P11229); experiment: PDSP secondary radioligand displacement assay, Ki; type: binding
Description: as §1

M4 = M4 (Homo sapiens, UniProt P08173); experiment: PDSP secondary radioligand displacement assay, Ki; type: binding; settings: supplement xlsx
Description: as §1

M5 = M5 (Homo sapiens, UniProt P08912); experiment: PDSP secondary radioligand displacement assay, Ki; type: binding
Description: as §1

H1 = H1 (Homo sapiens, UniProt P35367); experiment: PDSP secondary radioligand displacement assay, Ki; type: binding
H1, sequence (P35367 whole entry): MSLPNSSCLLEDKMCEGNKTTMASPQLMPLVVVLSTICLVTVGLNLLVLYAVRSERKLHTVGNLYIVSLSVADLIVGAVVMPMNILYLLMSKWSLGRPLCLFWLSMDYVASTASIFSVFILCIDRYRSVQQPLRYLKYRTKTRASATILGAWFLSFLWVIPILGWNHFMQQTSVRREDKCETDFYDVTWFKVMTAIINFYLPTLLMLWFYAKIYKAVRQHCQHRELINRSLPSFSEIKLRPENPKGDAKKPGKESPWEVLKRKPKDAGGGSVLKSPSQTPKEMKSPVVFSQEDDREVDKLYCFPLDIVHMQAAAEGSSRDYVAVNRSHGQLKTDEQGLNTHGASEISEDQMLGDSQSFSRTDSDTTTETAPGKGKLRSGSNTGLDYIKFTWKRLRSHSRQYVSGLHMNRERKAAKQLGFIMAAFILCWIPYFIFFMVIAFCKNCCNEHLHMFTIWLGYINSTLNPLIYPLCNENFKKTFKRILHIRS
Description: as §1

D2 = D2 (Homo sapiens, UniProt P14416); experiment: PDSP secondary radioligand displacement assay, Ki; type: binding
Description: as §1

D3 = D3 (Homo sapiens, UniProt P35462); experiment: PDSP secondary radioligand displacement assay, Ki; type: binding
Description: as §1

S2R = target: S2R; parameters: method as in earlier work; settings: ref 30 (Bowen et al., 1995); read-out: affinity at S2R (Ki); cited from earlier work

SERT, sequence (P31645 whole entry, species assumed): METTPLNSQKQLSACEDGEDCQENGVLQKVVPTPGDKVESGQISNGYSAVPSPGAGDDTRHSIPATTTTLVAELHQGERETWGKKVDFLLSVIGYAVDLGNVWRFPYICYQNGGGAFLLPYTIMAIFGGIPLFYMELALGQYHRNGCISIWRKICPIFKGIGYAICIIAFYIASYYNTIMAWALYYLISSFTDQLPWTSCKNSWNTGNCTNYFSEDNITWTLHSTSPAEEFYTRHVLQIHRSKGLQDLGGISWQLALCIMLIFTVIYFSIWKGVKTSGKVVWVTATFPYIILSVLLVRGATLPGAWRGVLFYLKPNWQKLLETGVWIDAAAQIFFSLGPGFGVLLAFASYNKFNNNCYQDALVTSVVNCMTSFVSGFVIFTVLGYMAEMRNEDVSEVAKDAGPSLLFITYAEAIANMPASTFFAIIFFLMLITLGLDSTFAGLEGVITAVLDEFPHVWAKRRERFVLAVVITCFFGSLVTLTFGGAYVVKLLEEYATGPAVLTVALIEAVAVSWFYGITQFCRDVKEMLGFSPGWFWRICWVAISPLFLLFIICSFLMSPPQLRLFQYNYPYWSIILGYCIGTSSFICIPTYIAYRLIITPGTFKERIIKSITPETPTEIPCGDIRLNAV

Row | Compound | Ki (SERT) | Ki (Alpha2A) | Ki (Alpha2C) | Ki (KOR) | Ki (M2) | Ki (M3) | Ki (H3) | Ki (MOR) | further results
1 | CCC1C[C@H]2CC3c4[nH]c5ccccc5c4CCN(C2=O)C13 (stereo in doubt) [compound 22] | 1380 nM | – | – | – | – | – | – | – | –
2 | CCC1CC2CC3c4[nH]c5cc(F)ccc5c4CCN(C2)C13 (stereo not drawn) [7a] | 153 nM | 4.1 µM | 623 nM | 4770 nM | 2.69 µM | 0.734 µM | – | – | Ki (Alpha1B): 2.09 µM; Ki (DAT): 1.32 µM; Ki (NET): 5.7 µM
3 | CCC1CC2CC3c4[nH]c5cc(Cl)ccc5c4CCN(C2)C13 (stereo not drawn) [7b] | 177 nM | 1.72 µM | 1360 nM | 1400 nM | 2.94 µM | 0.811 µM | 2.88 µM | 4450 nM | Ki (5-HT2A): 3000 nM; Ki (5-HT3): 1010 nM; Ki (Alpha2B): 2360 nM; Ki (NET): 1.79 µM
4 | CCC1CC2CC3c4[nH]c5cc(Br)ccc5c4CCN(C2)C13 (stereo not drawn) [7c] | 162 nM | 1.63 µM | 71 nM | 1040 nM | 8.03 µM | 1.52 µM | 3.32 µM | 4210 nM | Ki (5-HT1D): 7460 nM; Ki (5-HT3): 1400 nM; Ki (Alpha2B): 1620 nM; Ki (DAT): 0.807 µM; Ki (NET): 1.75 µM
5 | CCC1CC2CC3c4[nH]c5cc(C(F)(F)F)ccc5c4CCN(C2)C13 (stereo not drawn) [7e] | 206 nM | 1.42 µM | 110 nM | 1500 nM | – | 1.95 µM | 2.29 µM | 3810 nM | Ki (5-HT2A): 1800 nM; Ki (Alpha2B): 1650 nM; Ki (H4): 3030 nM; Ki (M1): 4.57 µM
6 | CCC1CC2CC3c4[nH]c5cc6c(cc5c4CCN(C2)C13)OCO6 (stereo not drawn) [7f] | – | – | – | – | – | – | 5.41 µM | – | Ki (5-HT1D): > 10000 nM
7 | C[C@H]1CC2CC3c4[nH]c5ccccc5c4CCN(C2)C31 (stereo partly drawn) [7g] | 371 nM | – | – | – | – | – | – | – | –
8 | CC(C)[C@H]1CC2CC3c4[nH]c5ccccc5c4CCN(C2)C31 (stereo partly drawn) [7h] | 709 nM | – | – | 995 nM | – | 0.414 µM | – | 3130 nM | Ki (DAT): 2.02 µM; Ki (M4): 416 nM; Ki (M5): 1.1 µM
9 | c1ccc2c3c([nH]c2c1)C1CC2C[C@H](C4CCOCC4)C1N(CC3)C2 (stereo partly drawn) [7i] | 1710 nM | – | – | – | 0.15 µM | 0.0737 µM | – | 1810 nM | Ki (H1): 0.882 µM; Ki (M1): 0.138 µM; Ki (M4): 37.9 nM; Ki (M5): 0.224 µM
10 | CCC1CC2CC3c4c(c5ccccc5n4CC=C(C)C)CCN(C2)C13 (stereo not drawn) [compound 23] | – | – | – | – | – | – | – | 6440 nM | Ki (D2): 2.42 µM; Ki (D3): 0.249 µM; Ki (H1): 1.71 µM
11 | CC[C@H]1C[C@H]2C[C@H]3c4[nH]c5ccccc5c4CCN(C2)[C@@H]13 [ibogamine (1), ibogamine, reference compound] | 272 nM | – | – | – | – | 2.46 µM | – | 2460 nM | Ki (S2R): 0.137 µM
12 | CC[C@H]1C[C@@H]2C[C@H]3c4[nH]c5cc(OC)ccc5c4CC[N@@](C2)[C@@H]13 [tabernanthine (3), tabernanthine, reference compound] | 1300 nM | – | – | 319 nM | – | – | 2.3 µM | – | Ki (5-HT1D): 7660 nM; Ki (S2R): 0.194 µM
13 | ibogaine [ibogaine (2)] | – | – | – | – | – | – | – | – | Ki (S2R): 0.201 µM
